Experimental data reported in the PolyMetriX glass transition set.
± gives the standard deviation of the reports.

| Structure (SMILES) | glass transition temperature [°C] |
| --- | --- |
| *Oc1ccc(NC(=O)c2cccc(C(=O)Nc3ccc(Oc4ccc(C5(c6ccc(*)cc6)C6CC7CC(C6)CC5C7)cc4)cc3)c2)cc1 (repeat unit) | 273.00 |
| *c1ccc(Sc2ccc(Sc3ccc(Sc4ccc(N5C(=O)c6ccc(-c7ccc8c(c7)C(=O)N(*)C8=O)cc6C5=O)cc4)cc3)cc2)cc1 (repeat unit) | 227.10 |
| *CCN(CCOC(=O)c1cc(OCCN(C)c2ccc(S(=O)(=O)C(F)(F)C(F)(F)C(F)(F)C(F)(F)C(F)(F)C(F)(F)C(F)(F)C(F)(F)F)cc2)cc(C(=O)O*)c1)c1ccc(S(=O)(=O)C(F)(F)C(F)(F)C(F)(F)C(F)(F)C(F)(F)C(F)(F)C(F)(F)C(F)(F)F)cc1 (repeat unit) | 83.00 |
| *O[Si](C)(C)CCCCCCCC[Si](*)(C)C (repeat unit) | -88.00 |
| *COC(=O)NCCCCCCNC(=O)OCc1ccc(*)o1 (repeat unit) | 33.00 |
| *c1cc(Br)c(Oc2c(Br)cc(N3C(=O)c4ccc(Oc5ccc6c(c5)C(=O)N(*)C6=O)cc4C3=O)cc2Br)c(Br)c1 (repeat unit) | 283.00 |
| *O[Si](C)(C)O[Si](C)(C)O[Si](C)(C)O[Si](C)(c1ccccc1)c1cccc([Si](*)(C)c2ccccc2)c1 (repeat unit) | -42.00 |
| *c1ccc2c(c1)C(=O)N(c1ccc(Oc3ccccc3-c3ccccc3Oc3ccc(N4C(=O)c5ccc(C(*)(C(F)(F)F)C(F)(F)F)cc5C4=O)cc3)cc1)C2=O (repeat unit) | 78.00 |
| *CC(*)(C)C(=O)OCCOCC (repeat unit) | -16.00 |
| *CCOCCOCCN1C(=O)c2ccc(C(=O)Oc3ccc(OC(=O)c4ccc5c(c4)C(=O)N(*)C5=O)cc3)cc2C1=O (repeat unit) | 105.00 |
| *CC(CC)(CC)C(=O)O* (repeat unit) | 60.00 |
| *Oc1ccc(C2(c3ccc(Oc4ccc(C(=O)c5cccc(C(=O)c6ccc(*)cc6)c5)cc4)c(C)c3)CCC3CCCCC3C2)cc1C (repeat unit) | 185.00 |
| *c1ccc(Oc2ccc(C3(c4ccc(Oc5ccc(N6C(=O)c7ccc(Oc8ccc(C9(c%10ccc(Oc%11ccc%12c(c%11)C(=O)N(*)C%12=O)cc%10)CCC(c%10ccccc%10)CC9)cc8)cc7C6=O)cc5)cc4)CC4CC3C3CCCC43)cc2)cc1 (repeat unit) | 255.00 |
| *Oc1ccc(S(=O)(=O)c2ccc(Oc3ccc(C(c4ccc(*)c(Br)c4)(C(F)(F)F)C(F)(F)F)cc3Br)cc2)cc1 (repeat unit) | 197.50 |
| *CC(*)c1cc(Br)ccc1OCCC(C)C (repeat unit) | 37.00 |
| *c1ccc(Oc2ccc(-c3cnc4cc5nc(*)cnc5cc4n3)cc2)cc1 (repeat unit) | 353.00 |
| *CCC[Si](*)(C)c1cccc(C)c1 (repeat unit) | -25.00 |
| *O[Si](*)(C)CCCOc1ccc(C(=O)Oc2ccc(-c3ccc(OC(=O)CCCCC(=O)OC4CC(C)CCC4C(C)C)cc3)cc2)cc1 (repeat unit) | 56.80 |
| *Oc1ccc(/C(=C/c2ccc(-c3ccc(/C=C(\c4ccccc4)c4ccc(OC(=O)c5ccc(C(*)=O)cc5)cc4)cc3)cc2)c2ccccc2)cc1 (repeat unit) | 236.00 |
| *Oc1ccc(CC(NC(=O)CCc2ccc(OC(=O)CCCCC(*)=O)cc2)C(=O)OC(C)CC)cc1 (repeat unit) | 50.00 |
| *c1ccc(N(c2ccc(C#N)cc2)c2ccc(N3C(=O)c4ccc(Oc5ccc(C6(c7ccc(Oc8ccc9c(c8)C(=O)N(*)C9=O)cc7)c7ccccc7-c7ccccc76)cc5)cc4C3=O)cc2)cc1 (repeat unit) | 279.00 |

| Structure (SMILES) | glass transition temperature [°C] |
| --- | --- |
| *CC(*)OC(=O)c1ccccc1OC (repeat unit) | 65.00 |
| *CCCCOC(=O)CCCCC(=O)OCCCCOC(=O)c1ccc(C(=O)O*)cc1 (repeat unit) | -20.00 |
| *c1c(F)c(F)c(-c2c(F)c(F)c(Oc3ccc(-c4nn(*)c(=O)c5ccccc45)c(F)c3)c(F)c2F)c(F)c1F (repeat unit) | 253.00 |
| */C=C/C1CC(*)C(C(=O)Oc2ccccc2)C1 (repeat unit) | 72.60 |
| *C(=O)Oc1c(C)cc(C(c2cc(C)c(OC(=O)c3ccc4c(c3)C(=O)N(c3c(C)cc(-c5cc(C)c(N6C(=O)c7ccc(*)cc7C6=O)c(C)c5)cc3C)C4=O)c(C)c2)(C(F)(F)F)C(F)(F)F)cc1C (repeat unit) | 327.00 |
| *O[Si](C)(C)CCCCCCOC(=O)C(C)Oc1ccc(OC(=O)c2ccc(-c3ccc(OCCCCCCCCCC[Si](*)(C)C)cc3)cc2)cc1 (repeat unit) | 35.00 |
| *c1ccc(-c2cc(-c3ccc(-c4ccccc4)cc3)cc(-c3ccc(N4C(=O)c5ccc(NC(=O)Nc6cccc7c(NC(=O)Nc8ccc9c(c8)C(=O)N(*)C9=O)cccc67)cc5C4=O)cc3)n2)cc1 (repeat unit) | 254.00 |
| *CCCCCCOC(=O)OCCCCOC(=O)OCCCCCCOc1ccc(C(=O)c2ccc(O*)cc2)cc1 (repeat unit) | 2.10 |
| *c1ccc(OC(=O)Oc2ccc(C3(*)OC(=O)c4ccccc43)cc2)cc1 (repeat unit) | 252.20 |
| *CCCCCCCCCCCNC(=O)CCCCCCCCCCC(=O)N* (repeat unit) | 39.00 |
| *c1cccc(P(=O)(c2ccccc2)c2cccc(N3C(=O)c4ccc(Oc5ccc(C(C)(C)c6ccc(Oc7ccc8c(c7)C(=O)N(*)C8=O)cc6)cc5)cc4C3=O)c2)c1 (repeat unit) | 213.00 |
| *CC(O)COc1ccc(Cc2ccc(O*)cc2)cc1 (repeat unit) | 143.20 |
| *CCCCCCOc1ccc(C(=O)N(C(=O)c2ccc(O*)cc2)c2ccccc2)cc1 (repeat unit) | 100.00 |
| *CCC(C)CC(C)(C)CNC(=O)c1ccc(C(=O)N*)cc1 (repeat unit) | 147.00 |
| *CC(O)COc1ccc(C(C)(C)c2ccc(OCC(O)COc3ccc(NC(=O)CCCCCC(=O)Nc4ccc(O*)cc4)cc3)cc2)cc1 (repeat unit) | 116.00 |
| *CC(*)(C)C(=O)OCCc1ccccc1 (repeat unit) [Poly(2-phenylethyl methacrylate)] | 37.42 ± 16 |
| *CCC1C(=O)N(CCCCCCCCCCCCCC)C(=O)C1* (repeat unit) | 62.40 |
| *c1c(C)cc(Cc2cc(C)c(N3C(=O)c4cccc(Oc5c(C)cc(Cc6cc(C)c(Oc7cccc8c7C(=O)N(*)C8=O)c(C)c6)cc5C)c4C3=O)c(C)c2)cc1C (repeat unit) | 243.00 |
| *c1cc(C)c(Oc2ccc(S(=O)(=O)c3ccc(Oc4cc(C)c(C5(*)OC(=O)c6ccccc65)cc4C)cc3)cc2)cc1C (repeat unit) | 269.00 |
| */C(C)=C(/*)SCCCCCC (repeat unit) | 110.00 |
| *CCCCCCCC(=O)OCC1COC(*)O1 (repeat unit) | -23.00 |

| Structure (SMILES) | glass transition temperature [°C] |
| --- | --- |
| *CCCP(CCCNC(=O)CCCCC(=O)N*)c1ccccc1 (repeat unit) | 49.00 |
| *c1ccc2c(c1)C(=O)N(c1ccc(Oc3ccc(N4C(=O)c5ccc(C(F)(F)C(F)(F)C(F)(F)C(F)(F)C(F)(F)C(*)(F)F)cc5C4=O)cc3)cc1)C2=O (repeat unit) | 185.00 |
| *c1ccc(CC(=O)Nc2cccc3c(NC(=O)Cc4ccc(-c5sc(*)c(-c6ccccc6)c5-c5ccccc5)cc4)cccc23)cc1 (repeat unit) | 255.00 |
| *Oc1ccc(OC(=O)c2ccc(C(*)=O)cc2Sc2ccc3ccccc3c2)cc1 (repeat unit) | 148.00 |
| *CC(*)(C)C(=O)OCCN(C)c1ccc(/N=N/c2ccc(S(=O)(=O)Nc3cc(C)on3)cc2)cc1 (repeat unit) | 123.00 |
| *c1ccc(Oc2ccc(C(C)(C)c3ccc(Oc4ccc(-c5cccc(*)n5)cc4C(F)(F)F)cc3)cc2)c(C(F)(F)F)c1 (repeat unit) | 125.00 |
| *CCN(CCOC(=O)c1cc(OCc2cc(OCc3ccccc3)cc(OCc3ccccc3)c2)cc(C(=O)O*)c1)c1ccc(/C=C/c2ccc(/C=C/C3=C(C#N)C(=C(C#N)C#N)OC3(c3ccccc3)C(F)(F)F)s2)cc1 (repeat unit) | 130.00 |
| *C/C=C/C(C)S(*)(=O)=O (repeat unit) | 71.00 |
| *c1cccc(OCCCOc2cccc(N3C(=O)c4ccc(-c5ccc6c(c5)C(=O)N(*)C6=O)cc4C3=O)c2)c1 (repeat unit) | 184.00 |
| *CC(*)c1ccc(-c2ccc3c(c2)C(CCCCCC)(CCCCCC)c2cc(-c4ccc5c(c4)C(CCCCCC)(CCCCCC)c4ccccc4-5)ccc2-3)cc1 (repeat unit) | 78.60 |
| *CC(C)(C)COC(=O)Nc1ccc(C)c(NC(=O)O*)c1 (repeat unit) | -32.00 |
| *C(=O)c1ccc2c(c1)C(=O)N(c1ccc(Oc3ccc(S(=O)(=O)c4ccc(C)cc4)cc3)c(N3C(=O)c4ccc(*)cc4C3=O)c1)C2=O (repeat unit) | 293.00 |
| *CCCCCCNC(=O)CCCCCCCC1C(CCCCCCCC(=O)N*)C=CC(CCCCCC)C1CCCCCCCC (repeat unit) | -3.00 |
| *CC(*)(C)C(=O)OCCCN(C)c1ccc(N(C)C)cc1 (repeat unit) | 12.50 |
| *O[Si](*)(C)C1CC2CC1C1C3CC(CC3C(=O)OC(C)(C)C)C21 (repeat unit) | 90.00 |
| *CCOCCOCCOCCOCCOCCOC(=O)c1cccc(C(=O)O*)c1 (repeat unit) | -23.50 |
| *CC(*)c1ccc(COCCC(F)(F)C(F)(F)C(F)(F)C(F)(F)C(F)(F)C(F)(F)C(F)(F)C(F)(F)F)cc1 (repeat unit) | 55.00 |
| */C=C/C1CC(*)C(C(=O)OCCNC(C)(C)C)C1 (repeat unit) | 29.00 |
| *CCCCCCCCCCCCCCNC(=O)NCCCCCCCCCCNC(=O)N* (repeat unit) | 40.00 |
| *CC(*)C(=O)OCC(F)(F)C(F)(F)OC(F)(F)C(F)(F)C(F)(F)F (repeat unit) | -68.00 |
| *OC(=O)C(C)NC(=O)CCCCCC(=O)NC(C)C(=O)OC1COC2C(*)COC12 (repeat unit) | 45.00 |
